From PubChem BioAssay (NCI) come the findings set out here.

Test systems include COLO 205 colon; EKVX NSCLC; HL-60(TB) leukemia; HOP-92 NSCLC; HS 578T breast; OVCAR-5 ovarian; SK-OV-3 ovarian; SN12C renal; SNB-19 CNS; T-47D breast.
Holding throughout (test): inhibition of tumour cell growth, NCI panel, 48 h

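Cultured in 96-well plates, cells were exposed to test compound for 48 hours across five concentrations. Here, GI50 denotes the concentration required for 50% inhibition of growth. TGI is the concentration that stops growth completely.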

Consider `COc1ccc(C2CC(c3ccc4ccccc4c3)=NN2c2nc(O)c(C3=c4cc(OC)ccc4=NC3=O)s2)cc1` (stereo not given), for which the GI50 in the test with COLO 205 colon was 0.0382 µM; with EKVX NSCLC it was 0.0898 µM; with HL-60(TB) leukemia it was above 57.9 µM; with HOP-92 NSCLC it was 0.131 µM; in the test on HS 578T breast, 0.0418 µM; with OVCAR-5 ovarian, 0.115 µM. Besides, the GI50 with SK-OV-3 ovarian was 0.13 µM; in the test with SN12C renal it was 0.166 µM; in the test with SNB-19 CNS it was 0.0897 µM; in the test with T-47D breast, 0.0401 µM. The TGI with COLO 205 colon is 0.129 µM; with EKVX NSCLC, 0.355 µM; in the test with HL-60(TB) leukemia it was above 100 µM; with HOP-92 NSCLC, 0.358 µM; in the test on HS 578T breast, 0.614 µM; in the test with OVCAR-5 ovarian it was 1.35 µM. Besides, the TGI in the test with SK-OV-3 ovarian was 0.431 µM; with SN12C renal, 0.464 µM; in the test with SNB-19 CNS it was 0.592 µM; in the test on T-47D breast it was 0.184 µM.
Take `COc1cc2c(cc1OCCCCn1c(-c3cccs3)nc3ccccc31)N=C[C@@H]1CCCN1C2=O`: the GI50 in the test on COLO 205 colon was 1.07 µM; in the test on EKVX NSCLC it was 3.36 µM; in the test with HL-60(TB) leukemia, 5.18 µM; with HOP-92 NSCLC, 1.33 µM; in the test with HS 578T breast, 1.7 µM; in the test on OVCAR-5 ovarian, 3.27 µM. Also, the GI50 is 3.32 µM in the test on SK-OV-3 ovarian, 2.5 µM with SN12C renal, 1.53 µM in the test on SNB-19 CNS and 0.503 µM with T-47D breast. Moreover, the TGI was determined as 2.58 µM in the test with COLO 205 colon; 11.1 µM in the test with EKVX NSCLC; 53.4 µM in the test on HL-60(TB) leukemia; 5.46 µM with HOP-92 NSCLC; 6.43 µM in the test on HS 578T breast; 9.13 µM with OVCAR-5 ovarian. Further, the TGI with SK-OV-3 ovarian stood at 9.19 µM; in the test on SN12C renal, 8.65 µM; in the test with SNB-19 CNS it was 4.39 µM; with T-47D breast, 3.65 µM.
Turning to `O=C(O)CNCCc1ccccc1`, the TGI with COLO 205 colon, with EKVX NSCLC, with HL-60(TB) leukemia, in the test with HOP-92 NSCLC, in the test on HS 578T breast and in the test on OVCAR-5 ovarian was above 100 µM throughout. Also, the TGI in the test on SK-OV-3 ovarian, in the test with SN12C renal, in the test on SNB-19 CNS and in the test on T-47D breast was above 100 µM throughout.
In the case of `CS(=N)(=O)CCC(N)P(=O)(O)O` (stereo not given), the TGI in the test with COLO 205 colon, in the test on EKVX NSCLC, in the test on HL-60(TB) leukemia, in the test on HOP-92 NSCLC, with HS 578T breast and in the test on OVCAR-5 ovarian was above 100 µM each time. Moreover, the TGI in the test with SK-OV-3 ovarian, in the test with SN12C renal, in the test on SNB-19 CNS and in the test on T-47D breast was above 100 µM in each case.
As to `C/C(=N\O)c1cccc(Nc2cc(-c3ccccc3)nc3c(O)cccc23)c1`, the GI50 in the test on COLO 205 colon was 10.6 µM; in the test on EKVX NSCLC, 10.3 µM; with HL-60(TB) leukemia, 4.71 µM; in the test with HOP-92 NSCLC, 1.91 µM; in the test on HS 578T breast it was 4.34 µM; in the test with OVCAR-5 ovarian, 12.5 µM. Moreover, the GI50 is 2.62 µM in the test on SK-OV-3 ovarian, 3.58 µM in the test on SN12C renal, 1.13 µM in the test on SNB-19 CNS and 2.36 µM in the test on T-47D breast. Besides, the TGI with COLO 205 colon was 26.7 µM; in the test with EKVX NSCLC, 56.7 µM; with HL-60(TB) leukemia, above 66.3 µM; in the test with HOP-92 NSCLC it was 13.7 µM; with HS 578T breast, above 60 µM; in the test on OVCAR-5 ovarian, 32.2 µM. For the same compound, the TGI with SK-OV-3 ovarian was determined as 25 µM; in the test on SN12C renal, 17.2 µM; in the test with SNB-19 CNS it was 9.42 µM; in the test on T-47D breast it was 30.5 µM.
In the case of `O=[N+]([O-])/C=C/c1cc2ccc3ccccc3c2[nH]1`, the TGI in the test on COLO 205 colon turned out to be 4.29 µM; in the test on EKVX NSCLC it was 5.33 µM; in the test on HL-60(TB) leukemia it was 5.29 µM; with HOP-92 NSCLC, 3.64 µM; with HS 578T breast, 22.2 µM; with OVCAR-5 ovarian, 4.55 µM. For the same compound, the TGI in the test with SK-OV-3 ovarian was determined as 17.2 µM; with SN12C renal, 3.81 µM; in the test with SNB-19 CNS, 7.79 µM; in the test on T-47D breast it was 3.89 µM.
Regarding `COc1cc2c3c(n(CCCN4CCCNCC4)c(=O)c2cc1OC)-c1cc2c(cc1C3=O)OCO2`, the GI50 with COLO 205 colon was 2.21 µM; in the test with EKVX NSCLC, 7.6 µM; with HL-60(TB) leukemia, 0.147 µM; with HOP-92 NSCLC, 0.135 µM; in the test on HS 578T breast it was 2.09 µM; with OVCAR-5 ovarian it was 2.69 µM. Further, the GI50 in the test on SK-OV-3 ovarian is 4 µM; with SN12C renal, 0.239 µM; in the test with SNB-19 CNS, 1.26 µM; in the test on T-47D breast, 0.984 µM. For the same compound, the TGI in the test with COLO 205 colon was 10.8 µM; in the test with EKVX NSCLC, 15.5 µM; in the test on HL-60(TB) leukemia, 0.976 µM; in the test with HOP-92 NSCLC it was 0.471 µM; with HS 578T breast it was 14.2 µM; in the test with OVCAR-5 ovarian, 9.69 µM. The TGI in the test on SK-OV-3 ovarian turned out to be 15.5 µM; in the test with SN12C renal it was 1.28 µM; in the test on SNB-19 CNS it was 9.62 µM; in the test on T-47D breast, 7.98 µM.
For `Cc1cc(C(O)(c2ccc(Nc3ccccc3)cc2)c2ccc(Nc3ccc(S(=O)(=O)O)cc3)cc2)ccc1N` (stereo not given), the GI50 with COLO 205 colon is 0.782 µM; in the test with EKVX NSCLC, 1.49 µM; in the test with HL-60(TB) leukemia, 1.66 µM; in the test on HOP-92 NSCLC it was 1.03 µM; with HS 578T breast, 1.5 µM; in the test on OVCAR-5 ovarian, 1.4 µM. In addition, the GI50 was 2.53 µM in the test on SK-OV-3 ovarian, 1.82 µM with SN12C renal, 1.39 µM in the test on SNB-19 CNS and 0.609 µM in the test with T-47D breast. Also, the TGI with COLO 205 colon amounted to 2.8 µM; in the test on EKVX NSCLC it was 3.89 µM; in the test with HL-60(TB) leukemia it was 6.12 µM; with HOP-92 NSCLC, 2.54 µM; in the test on HS 578T breast, 5.55 µM; in the test with OVCAR-5 ovarian, 3 µM. Further, the TGI in the test on SK-OV-3 ovarian came out at 5.92 µM; with SN12C renal, 9.12 µM; in the test on SNB-19 CNS it was 3.48 µM; with T-47D breast it was 3.18 µM.
In the case of `CCN(CC)CC(O)COc1c(Br)c(Br)c(Br)c2c1OC(C)(C)C2` (stereo not given), the GI50 in the test with COLO 205 colon was 1.98 µM; with EKVX NSCLC it was 3.04 µM; in the test with HL-60(TB) leukemia, 1.73 µM; with HOP-92 NSCLC it was 1.35 µM; in the test with HS 578T breast it was 4.58 µM; with OVCAR-5 ovarian it was 7.68 µM. Further, the GI50 is 16.7 µM with SK-OV-3 ovarian, 6.22 µM in the test with SN12C renal, 9.22 µM with SNB-19 CNS and 10.6 µM in the test with T-47D breast. Further, the TGI in the test with COLO 205 colon is 5.14 µM; with EKVX NSCLC, 9.64 µM; in the test on HL-60(TB) leukemia it was 3.53 µM; with HOP-92 NSCLC it was 6.05 µM; in the test on HS 578T breast, 19 µM; in the test with OVCAR-5 ovarian, 23.8 µM. Besides, the TGI stood at 36.4 µM in the test on SK-OV-3 ovarian, 19.8 µM in the test on SN12C renal, 33.9 µM with SNB-19 CNS and 41 µM in the test on T-47D breast.
